Read-outs that look alike come from different tables or passages of the source.
Experiment: Stability of (7aS,2′S)-2-oxo-clopidogrel in plasma, screening of TCEP dosage (Example 4)
Type: in vitro ADME
Conditions: for recovery at 0 min, 0.1 ng/mL / recovery at 30 min, 0.1 ng/mL / recovery at 60 min, 0.1 ng/mL / recovery at 120 min, 0.1 ng/mL: theoretical 0.1 ng/mL; for recovery at 0 min, 0.1 ng/mL / recovery at 30 min, 0.1 ng/mL / recovery at 60 min, 0.1 ng/mL / recovery at 120 min, 0.1 ng/mL / recovery at 0 min, 12 ng/mL / recovery at 30 min, 12 ng/mL / recovery at 60 min, 12 ng/mL / recovery at 120 min, 12 ng/mL: read-out: Recovery rate; for recovery at 0 min, 12 ng/mL / recovery at 30 min, 12 ng/mL / recovery at 60 min, 12 ng/mL / recovery at 120 min, 12 ng/mL: theoretical 12.0 ng/mL
Protocol: S2. Plasma sample pre-treatment: taking 100 μl of the plasma, adding 5 μl of an internal standard working solution and 300 μl of acetonitrile respectively; after vortex mixing, centrifuging at 2-8° C. and 10,000 r/min for 10 min, and collecting the supernatant for later use.
S3. LC-MS/MS analysis: injecting 10 μl of the supernatant prepared from step S2 for determination, where the liquid chromatography conditions are: • the chromatographic column is Kinetex® 1.7 μm C18 100 A 100×2.1 mm; the column temperature is 40° C.; the mobile phase is acetonitrile-0.2% aqueous formic acid solution with a flow rate of 0.2 ml/min; and a gradient elution is carried out as specified in the table below:
ESI ion source, positive ion detection in multiple reaction monitoring mode (MRM); the quantitatively analyzed ions (7aS,2′S)-2-oxo-clopidogrel: m/z 338.100→155.000, IS: m/z 341.100→158.000, a capillary voltage of 4.0 KV, a cone voltage of 25 V, a desolvation gas temperature of 400° C. and a source temperature of 150° C. The optimal collision energy is 20 eV.
Blank plasma was taken and TCEP was added to prepare plasma containing TCEP at different concentrations (10, 50, 100 mg/ml). Subsequently, standard series solution of (7aS,2′S)-2-oxo-clopidogrel was added separately to prepare quality control samples with two concentrations of (7aS,2′S)-2-oxo-clopidogrel (0.1 and 12.0 ng/ml), 3 samples for each concentration. They were placed at room temperature and on ice, respectively, and the plasma samples at different placing time points were taken to examine the stability by pre-treating the plasma samples according to the method of S2 of Example 1, followed by LC/MS/MS determination according to the method of S3.

[1] = plasma containing TCEP 10 mg/ml, TCEP 10 mg/ml, on ice
[2] = plasma containing TCEP 10 mg/ml, TCEP 10 mg/ml, room temperature
[3] = plasma without TCEP, No TCEP, on ice
[4] = plasma without TCEP, No TCEP, room temperature
[5] = plasma, TCEP 50 mg/ml, room temperature
[6] = plasma, TCEP 100 mg/ml, room temperature

COC(=O)[C@H](c1ccccc1Cl)N1CC[C@@H]2SC(=O)C=C2C1 [(7aS,2′S)-2-oxo-clopidogrel, methyl(S)-2-(2-chlorophenyl)-2-((S)-2-oxo-2,6,7,7a-tetrahydrothieno[3,2-c]pyridin-5 (4H)-yl)acetate]
Stability in plasma (in words) (on ice compared with room temperature): more stable when placed on ice than at room temperature
recovery at 0 min, 0.1 ng/mL [1]: 96.5%
recovery at 30 min, 0.1 ng/mL [1]: 94.2%
recovery at 60 min, 0.1 ng/mL [1]: 86.3%
recovery at 120 min, 0.1 ng/mL [1]: 78.2%
recovery at 0 min, 0.1 ng/mL [2]: 96.5%
recovery at 30 min, 0.1 ng/mL [2]: 95.2%
recovery at 60 min, 0.1 ng/mL [2]: 83.3%
recovery at 120 min, 0.1 ng/mL [2]: 72.9%
recovery at 0 min, 12 ng/mL [1]: 102%
recovery at 30 min, 12 ng/mL [1]: 99.2%
recovery at 60 min, 12 ng/mL [1]: 88.8%
recovery at 120 min, 12 ng/mL [1]: 82.7%
recovery at 0 min, 12 ng/mL [2]: 102%
recovery at 30 min, 12 ng/mL [2]: 97.5%
recovery at 60 min, 12 ng/mL [2]: 86.7%
recovery at 120 min, 12 ng/mL [2]: 78.8%
recovery at 0 min, 0.1 ng/mL (plasma containing TCEP 50 mg/ml, TCEP 50 mg/ml, room temperature): 96.5%
Stability in plasma (in words) (plasma samples without TCEP): degraded fast
recovery at 0 min, 0.1 ng/mL [3]: 96.5%
recovery at 30 min, 0.1 ng/mL [3]: 84.2%
recovery at 60 min, 0.1 ng/mL [3]: 76.3%
recovery at 120 min, 0.1 ng/mL [3]: 62.2%
recovery at 30 min, 0.1 ng/mL [4]: 78.2%
recovery at 60 min, 0.1 ng/mL [4]: 63.3%
recovery at 120 min, 0.1 ng/mL [4]: 52.9%
recovery at 0 min, 12 ng/mL [3]: 102%
recovery at 30 min, 12 ng/mL [3]: 85.8%
recovery at 60 min, 12 ng/mL [3]: 80.4%
recovery at 120 min, 12 ng/mL [3]: 60.3%
recovery at 0 min, 12 ng/mL [4]: 102%
recovery at 30 min, 12 ng/mL [4]: 78.8%
recovery at 60 min, 12 ng/mL [4]: 69.8%
recovery at 120 min, 12 ng/mL [4]: 54.8%
recovery at 0 min, 0.1 ng/mL (plasma, No TCEP, room temperature): 96.5%
recovery at 0 min, 0.1 ng/mL (plasma, TCEP 50 mg/ml, on ice): 96.5%
recovery at 30 min, 0.1 ng/mL (plasma, TCEP 50 mg/ml, on ice): 95.6%
recovery at 60 min, 0.1 ng/mL (plasma, TCEP 50 mg/ml, on ice): 93.2%
recovery at 120 min, 0.1 ng/mL (plasma, TCEP 50 mg/ml, on ice): 91.1%
recovery at 30 min, 0.1 ng/mL [5]: 93.5%
recovery at 60 min, 0.1 ng/mL [5]: 91.4%
recovery at 120 min, 0.1 ng/mL [5]: 89.5%
recovery at 0 min, 12 ng/mL (plasma, TCEP 50 mg/ml, on ice): 102%
recovery at 30 min, 12 ng/mL (plasma, TCEP 50 mg/ml, on ice): 102%
recovery at 60 min, 12 ng/mL (plasma, TCEP 50 mg/ml, on ice): 99.2%
recovery at 120 min, 12 ng/mL (plasma, TCEP 50 mg/ml, on ice): 95%
recovery at 0 min, 12 ng/mL [5]: 102%
recovery at 30 min, 12 ng/mL [5]: 101%
recovery at 60 min, 12 ng/mL [5]: 99.2%
recovery at 120 min, 12 ng/mL [5]: 88.3%
recovery at 0 min, 0.1 ng/mL (plasma, TCEP 100 mg/ml, on ice): 96.5%
recovery at 30 min, 0.1 ng/mL (plasma, TCEP 100 mg/ml, on ice): 95.8%
recovery at 60 min, 0.1 ng/mL (plasma, TCEP 100 mg/ml, on ice): 94.2%
recovery at 120 min, 0.1 ng/mL (plasma, TCEP 100 mg/ml, on ice): 95.1%
recovery at 0 min, 0.1 ng/mL [6]: 96.5%
recovery at 30 min, 0.1 ng/mL [6]: 95.5%
recovery at 60 min, 0.1 ng/mL [6]: 93.4%
recovery at 120 min, 0.1 ng/mL [6]: 91.5%
recovery at 0 min, 12 ng/mL (plasma, TCEP 100 mg/ml, on ice): 102%
recovery at 30 min, 12 ng/mL (plasma, TCEP 100 mg/ml, on ice): 103%
recovery at 60 min, 12 ng/mL (plasma, TCEP 100 mg/ml, on ice): 101%
recovery at 120 min, 12 ng/mL (plasma, TCEP 100 mg/ml, on ice): 98.3%
recovery at 0 min, 12 ng/mL [6]: 102%
recovery at 30 min, 12 ng/mL [6]: 102%
recovery at 60 min, 12 ng/mL [6]: 99.2%
recovery at 120 min, 12 ng/mL [6]: 96.7%

From patent US20260140098A1, “METHOD FOR TREATING PLASMA SAMPLE CONTAINING (7aS,2'S)-2-OXO-CLOPIDOGREL AND METHOD FOR DETERMINING THE SAME” (CHENGDU SHIBEIKANG BIOMEDICAL TECHNOLOGY CO., LTD., priority 2021, published 2026)
